# Key:
# [1] = biological target: p-SMAD3 S208 (SMAD3 phosphorylated at Ser208), human, endogenous in human Treg cells (human) (UniProt P84022); experiment: flow cytometry read-out in human Treg cells with or without 50 uM Ac-YVAD-CMK (FIG. 15D), presumably flow-based PLA
# caspase-1 = experiment: FAM-FLICA caspase-1 activation assay in human Treg cells; assay type: cell-based
# Experimental: Purified primary human CD4+ T cells were used for siRNA knockdown of RUNX1, RPTOR, IL37, CREB1, CHK1, NLRP2, NLRP3, NLRP4, ASC, and NLRC4, and CD4+CD25+CD127^dim T cells for siRNA knockdown of FOXP3 and IL37. Cells were purified from healthy donor PBMCs as described above and then placed in culture in complete RPMI 1640 for at least 2 h prior to siRNA transfection via nucleofection using the Amaxa P3 Primary Cell 4D-Nucleofector X Kit L (Lonza) following the manufacturer's instructions. […] Knockdowns were confirmed 24 hours after nucleofection by qRT-PCR or 48 hours later by western blot, and the relative density of the protein bands was determined using FIJI. […]
# Purified lymphocytes from either humans or mice were washed with FACS buffer (5% BSA (Sigma-Aldrich) and 1×PBS), and then prepared for surface or intracellular staining, as described (Osborne and Wetzel, 2012). For surface staining, 1 μg or the manufacturer-recommended amounts of fluorescently conjugated antibody specific to the surface marker to be visualized was added to 1×10^6 cells resuspended in 100 μl of FACS buffer for 30 min at 4° C., then washed 2× with FACS buffer prior to being either analyzed or further processed. […] For measuring proliferation, cells were stained with 5-μM CFSE (Molecular Probes, Eugene, OR) prior to cell culture and analyzed using flow cytometry. […]
# PAK1/2/3 = PAK1/2/3 inhibition in unstimulated human Treg cells; assay type: cell-based; details: 1 μM
# Experimental: Purified lymphocytes from either humans or mice were washed with FACS buffer (5% BSA (Sigma-Aldrich) and 1×PBS), and then prepared for surface or intracellular staining, as described (Osborne and Wetzel, 2012). For surface staining, 1 μg or the manufacturer-recommended amounts of fluorescently conjugated antibody specific to the surface marker to be visualized was added to 1×10^6 cells resuspended in 100 μl of FACS buffer for 30 min at 4° C., then washed 2× with FACS buffer prior to being either analyzed or further processed. For intracellular cytokine staining (ICS), the FOXP3 Cytoperm/Cytofix staining kit (BD Pharmingen, San Diego, CA) was used after cells were stimulated for 24 h on 1 μg/ml anti-CD3-coated plates with soluble 1 μg/ml anti-CD28 antibody or anti-CD3/CD28 conjugated Dynabeads™ (Gibco, Thermo Fisher). For measuring proliferation, cells were stained with 5-μM CFSE (Molecular Probes, Eugene, OR) prior to cell culture and analyzed using flow cytometry. Flow-based measurement of caspase-1 activation was done using the FAM-FLICA® Caspase-1 Assay kit #98 following the manufacturer's instructions (ImmunoChemistry Tech, Bloomington, MN). For flow cytometry experiments using the caspase-1 inhibitor Ac-YVAD-CMK, cells were cultured with 50 μM Ac-YVAD-CMK for 2 h prior to stimulation, 24 h (mouse), and 48 h (human), with anti-CD3/CD28 conjugated Dynabeads™ and then prepared for flow cytometry analyses. For experiments using the PAK1/2/3 inhibitor FRAX597, cells were cultured with 1 μM FRAX597 for either 24 h (flow and qRT-PCR) or 48 h (immunoblotting) and then prepared for analysis. For flow cytometry or qRT-PCR experiments using IL-6 treatment, human and mouse cells were cultured with 20 ng/ml IL-6 (Peprotech) and anti-CD3/CD28 conjugated Dynabeads™ and then prepared for analyses. […] All acquisitions were performed on a Galios® or Galios® 561 cytometer equipped with Kaluza software (Beckman-Coulter, Indianapolis, IN), and all data were analyzed with FlowJo_V10 software (Tree Star, Ashland, OR).
# UniProt P84022, sequence (P84022 2-425 limits assumed): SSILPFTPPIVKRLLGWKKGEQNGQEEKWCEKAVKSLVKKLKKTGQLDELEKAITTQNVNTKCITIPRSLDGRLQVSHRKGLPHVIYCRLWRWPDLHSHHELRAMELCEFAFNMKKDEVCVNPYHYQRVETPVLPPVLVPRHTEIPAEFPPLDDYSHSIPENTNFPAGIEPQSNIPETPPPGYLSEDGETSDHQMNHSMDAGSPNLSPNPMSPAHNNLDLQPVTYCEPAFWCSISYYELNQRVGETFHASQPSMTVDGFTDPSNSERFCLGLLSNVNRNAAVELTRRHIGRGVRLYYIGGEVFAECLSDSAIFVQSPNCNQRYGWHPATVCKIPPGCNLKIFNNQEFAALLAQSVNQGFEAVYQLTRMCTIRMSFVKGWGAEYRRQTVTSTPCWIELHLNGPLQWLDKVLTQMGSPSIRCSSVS
compound,measurement,setting,value
"Interleukin-37 (IL-37), human, endogenous in human Treg cells (from UniProt Q9NZH6 1-218) (ligand)","decrease of the interaction after caspase-1 inhibitor Ac-YVAD-CMK, against untreated Treg cells",[1],36.5%
CCn1c(=O)c(-c2ccc(-c3cncs3)cc2Cl)cc2cnc(Nc3ccc(N4CCN(C)CC4)cc3)nc21 [FRAX 597],reduction in caspase-1 activation,"caspase-1; human Treg cells, 1 μM, 24 hrs",44%
same,IL-37 localization,PAK1/2/3; 24 hrs,shift in IL-37 localization from the nucleus to the cytoplasm
same,"p-NLRC4 (S533), fold decrease",PAK1/2/3; 24 hrs,1.9 fold
same,FOXP3 gene and protein expression,"PAK1/2/3; 24 hrs (gene), 48 hrs (protein)",decrease
"ASC: siRNA against ASC, SEQ ID NO: 1-2 (chain 1 GCUCUUCAGUUUCACACCAUU; chain 2 UGGUGUGAAACUGAAGAGCUU; chemistry not given here)",caspase-1 activation compared to siRNA scramble control,"caspase-1; primary human Treg cells, siRNA silencing",−20.5%
